Experimental findings from ChEMBL document CHEMBL1201862, “PubChem BioAssay data set” (2004) are described below.

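Dose response: 5 concentrations. Exposure: 48 h. Format: 96-well plates. Endpoint: linear interpolation; highest concentration if not reached. GI50 is the concentration that inhibits growth by half.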 The source made the active and inactive calls. Rule as the data show it: active = GI50 up to about 1.1 µM and inactive = higher.

Test systems include A549; CAKI-1; CCRF-CEM; COLO 205; HCT-116; HCT-15; HL-60; LOX IMVI; MOLT-4; NCI-H522; NCI/ADR-RES; RPMI-8226; RXF 393; SF-268; SK-MEL-5; SN12C; SW-620; UACC-62; UO-31; HCC 2998.
Experiment in all cases: inhibition of tumour cell growth, NCI panel, 48 h

On to `COc1cc(O)cc2oc(-c3ccc(O)cc3)cc(=O)c12`, for which the GI50 is > 100 µM (inactive) with A549; 64.3 µM (inactive) with CAKI-1; > 100 µM (inactive) with CCRF-CEM; > 100 µM (inactive) in the experiment on COLO 205; 44.4 µM (inactive) with HCT-116; greater than 100 µM in the experiment on HCT-15. In addition, the GI50 in the experiment on HL-60 was > 100 µM (inactive); with LOX IMVI it was > 100 µM (inactive); in the experiment on MOLT-4, > 100 µM (inactive); in the experiment on NCI-H522, 22.2 µM (inactive); in the experiment on NCI/ADR-RES it was > 100 µM (inactive); in the experiment on RPMI-8226 it was 66.1 µM (inactive). Besides, the GI50 in the experiment on RXF 393 is 32.7 µM (inactive); with SF-268 it was 67.8 µM (inactive); with SK-MEL-5, > 100 µM (inactive); in the experiment with SN12C it was > 100 µM (inactive); in the experiment on SW-620 it was 49.3 µM (inactive); with UACC-62, 83.9 µM (inactive). The GI50 in the experiment with UO-31 is 55 µM (inactive).

Take `O=c1[nH]c(=O)n(C2CC(O)C(CO)O2)cc1C(OCC(F)(F)F)OCC(F)(F)F` (centres undefined): the GI50 in the experiment on A549 was > 100 µM (inactive); in the experiment on CAKI-1, > 100 µM (inactive); in the experiment with CCRF-CEM it was 70.8 µM (inactive); in the experiment on COLO 205, > 100 µM (inactive); in the experiment on HCC 2998, > 100 µM (inactive); in the experiment with HL-60 it was > 100 µM (inactive). Moreover, the GI50 in the experiment with LOX IMVI, with MOLT-4, with NCI-H522, with RPMI-8226, in the experiment on RXF 393 and in the experiment on SF-268 was > 100 µM (inactive) each time. Besides, the GI50 with SK-MEL-5, with SN12C, with SW-620, in the experiment on UACC-62 and with UO-31 was > 100 µM (inactive) throughout.

Take `O=C(c1ccccc1Br)C(F)(F)F`: the GI50 was > 100 µM (inactive) with A549; > 100 µM (inactive) in the experiment with CAKI-1; > 100 µM (inactive) in the experiment with CCRF-CEM; 88.9 µM (inactive) with COLO 205; > 100 µM (inactive) with HCC 2998; > 100 µM (inactive) in the experiment on HCT-116. The GI50 in the experiment with HCT-15 was greater than 100 µM; in the experiment on HL-60, > 100 µM (inactive); with LOX IMVI, > 100 µM (inactive); in the experiment with MOLT-4, > 100 µM (inactive); in the experiment on NCI-H522, > 100 µM (inactive); in the experiment on NCI/ADR-RES, > 100 µM (inactive). The GI50 in the experiment on RPMI-8226, in the experiment on SF-268, in the experiment with SK-MEL-5, with SN12C, in the experiment with SW-620 and with UACC-62 was > 100 µM (inactive) each time. In addition, the GI50 in the experiment on UO-31 was > 100 µM (inactive).

With `CN(C)C(=S)/N=c1\ssc(=S)n1C`, the GI50 in the experiment on A549 is > 100 µM (inactive); with CAKI-1, > 100 µM (inactive); with CCRF-CEM, > 100 µM (inactive); with HCC 2998 it was > 100 µM (inactive); in the experiment on HCT-116 it was > 100 µM (inactive); in the experiment with HCT-15, greater than 100 µM. Also, the GI50 with HL-60, in the experiment with MOLT-4, with NCI-H522, with RPMI-8226, with RXF 393 and in the experiment with SF-268 was > 100 µM (inactive) in each case. The GI50 in the experiment on SK-MEL-5, with SN12C, with SW-620, in the experiment on UACC-62 and in the experiment with UO-31 was > 100 µM (inactive) throughout.

`CC(=O)OC(OC(C)=O)n1cc(C=O)c2ccccc21`: the GI50 with A549, in the experiment on CAKI-1, in the experiment on CCRF-CEM, in the experiment on COLO 205, in the experiment with HCC 2998 and in the experiment on HCT-116 was > 100 µM (inactive) each time. In addition, the GI50 is greater than 100 µM in the experiment with HCT-15; > 100 µM (inactive) with HL-60; > 100 µM (inactive) with LOX IMVI; > 100 µM (inactive) with MOLT-4; > 100 µM (inactive) with NCI-H522; > 100 µM (inactive) with NCI/ADR-RES. The GI50 with RPMI-8226 is > 100 µM (inactive); with SK-MEL-5 it was > 100 µM (inactive); in the experiment on SN12C, > 100 µM (inactive); in the experiment on SW-620, > 100 µM (inactive); in the experiment with UO-31, 63.5 µM (inactive).

Consider `c1ccc(NN/N=N/c2ccc(-c3nc4ccccc4[nH]3)cc2)cc1`, for which the GI50 in the experiment with A549 is 37 µM (inactive); with CAKI-1, 30.1 µM (inactive); with CCRF-CEM it was 20.7 µM (inactive); in the experiment on COLO 205 it was 23.1 µM (inactive); in the experiment on HCT-116, 28 µM (inactive); with HCT-15, 13 µM. Also, the GI50 with HL-60 was 22 µM (inactive); in the experiment with LOX IMVI, 15.2 µM (inactive); in the experiment with MOLT-4 it was 14.5 µM (inactive); with NCI-H522 it was 24.7 µM (inactive); in the experiment with NCI/ADR-RES it was 22.1 µM (inactive); in the experiment on RPMI-8226, 14.2 µM (inactive). The GI50 with RXF 393 was 21.3 µM (inactive); in the experiment on SK-MEL-5, 29 µM (inactive); in the experiment on SN12C, 32.2 µM (inactive); with SW-620 it was 52.4 µM (inactive); in the experiment with UO-31, 34.5 µM (inactive).

In the case of `Cc1cc(C)n(C(=C(C(Cl)=C(Cl)Cl)[N+](=O)[O-])n2nc(C)cc2C)n1`, the GI50 in the experiment on A549 is 3.5 µM (inactive); in the experiment on CAKI-1, 3.23 µM (inactive); in the experiment with CCRF-CEM, 2.16 µM (inactive); in the experiment with COLO 205, 2.08 µM (inactive); in the experiment with HCC 2998, 3.19 µM (inactive); in the experiment with HCT-116, 3.65 µM (inactive). In addition, the GI50 with HCT-15 was 3.2 µM; with HL-60 it was 1.91 µM (inactive); in the experiment with LOX IMVI, 2.1 µM (inactive); in the experiment with MOLT-4, 2.37 µM (inactive); in the experiment with NCI-H522, 2.73 µM (inactive); in the experiment with NCI/ADR-RES, 3.78 µM (inactive). The GI50 was 3.79 µM (inactive) in the experiment with RXF 393; 4.23 µM (inactive) in the experiment on SF-268; 2.13 µM (inactive) with SK-MEL-5; 3.98 µM (inactive) with SN12C; 3.7 µM (inactive) in the experiment with SW-620; 4.06 µM (inactive) in the experiment on UACC-62. In the experiment with UO-31, the GI50 was 3.18 µM (inactive).

For the compound `COc1ccc2nc3cc(Cl)ccc3c(Sc3ccc(N)cc3)c2c1`, the GI50 in the experiment on A549 is 12.5 µM (inactive); in the experiment on CAKI-1 it was 12.9 µM (inactive); in the experiment on CCRF-CEM it was 3.81 µM (inactive); in the experiment with COLO 205 it was 11.2 µM (inactive); with HCC 2998, 12.2 µM (inactive); with HCT-116 it was 4.78 µM (inactive). Also, the GI50 with HCT-15 is 3.94 µM; with LOX IMVI it was 7.6 µM (inactive); in the experiment with MOLT-4, 2.56 µM (inactive); with NCI-H522, 4.83 µM (inactive); in the experiment with RXF 393 it was 11.7 µM (inactive); with SF-268, 11.6 µM (inactive). Also, the GI50 with SK-MEL-5 is 12.4 µM (inactive); in the experiment with SN12C, 11.6 µM (inactive); in the experiment with SW-620, 3.77 µM (inactive); in the experiment on UACC-62, 5.04 µM (inactive); in the experiment on UO-31, 10.8 µM (inactive).

On to `N#C/N=N/c1cc(Cl)c(/N=N/C#N)cc1Cl`, for which the GI50 in the experiment with A549 was > 100 µM (inactive); in the experiment on CCRF-CEM, 19.8 µM (inactive); in the experiment with COLO 205, 97.5 µM (inactive); in the experiment with HCC 2998, > 100 µM (inactive); in the experiment with HCT-116, > 100 µM (inactive); with HCT-15 it was greater than 100 µM. For the same compound, the GI50 in the experiment with HL-60 is 34.7 µM (inactive); in the experiment with LOX IMVI it was 38.6 µM (inactive); in the experiment with MOLT-4, 40.9 µM (inactive); with NCI-H522 it was 51.3 µM (inactive); in the experiment with RXF 393 it was > 100 µM (inactive); with SF-268 it was > 100 µM (inactive). Also, the GI50 is > 100 µM (inactive) in the experiment with SK-MEL-5, > 100 µM (inactive) in the experiment on SN12C, 35.3 µM (inactive) in the experiment with SW-620 and > 100 µM (inactive) in the experiment on UACC-62.

As for `CCCNC(=S)N/C=C1/C(=O)Oc2ccccc2C1=O`, the GI50 with A549, with CAKI-1, in the experiment with CCRF-CEM, in the experiment with COLO 205, in the experiment with HCC 2998 and with HCT-116 was > 100 µM (inactive) in each case. Also, the GI50 in the experiment with HCT-15 was greater than 100 µM; with HL-60, 13.6 µM (inactive); in the experiment on LOX IMVI, > 100 µM (inactive); with MOLT-4 it was > 100 µM (inactive); in the experiment on NCI-H522, > 100 µM (inactive); with NCI/ADR-RES it was > 100 µM (inactive). For the same compound, the GI50 in the experiment with RXF 393 is 60.4 µM (inactive); with SF-268, > 100 µM (inactive); in the experiment with SK-MEL-5 it was > 100 µM (inactive); in the experiment on SN12C, > 100 µM (inactive); in the experiment with SW-620 it was > 100 µM (inactive); with UACC-62 it was 92 µM (inactive). For the same compound, the GI50 in the experiment on UO-31 was 28.4 µM (inactive).

On to `COc1c(Br)cc(CC(N)=O)c(O)c1Br`, for which the GI50 with A549, in the experiment on CAKI-1, in the experiment on CCRF-CEM, with COLO 205, in the experiment with HCC 2998 and with HCT-116 was > 100 µM (inactive) throughout. Further, the GI50 in the experiment with HL-60, with LOX IMVI, with MOLT-4, in the experiment on NCI-H522, in the experiment on RXF 393 and with SF-268 was > 100 µM (inactive) in each case. In addition, the GI50 in the experiment on SK-MEL-5, in the experiment with SN12C, with SW-620, in the experiment on UACC-62 and in the experiment with UO-31 was > 100 µM (inactive) in each case.
